Patent publication US8497269B2, “Phthalazine compounds as p38 map kinase modulators and methods of use thereof” (Amgen Inc., priority 2008, dated 2013)

Tests used:
[1] = molecular target: human p38α (Homo sapiens, UniProt Q16539); assay: Purified and activated recombinant human p38α assay (HTRF); assay type: biochemical; details: 1 nM p38α, 50 μM ATP, 100 nM GST-ATF2-Avitag, 1 hour at RT, read-out: p38a IC50 IC50
Procedure: Purified and Activated Recombinant Human p38α Assay
Kinase Reaction Buffer: Kinase reaction buffer for p38α HTRF assays consists of 50 mM Tris-pH 7.5, 5 mM MgCl2, 0.1 mg/mL BSA, 100 μM Na3VO4 and 0.5 mM DTT.
HTRF Detection Buffer: HTRF detection buffer contains 100 mM HEPES-pH 7.5, 100 mM NaCl, 0.1% BSA, 0.05% Tween-20, and 10 mM EDTA.
Serial Dilution of Compounds: Compounds were dissolved in 100% DMSO and serially diluted (3 fold, 10 point) in a polypropylene 96-well microtiter plate (drug plate). The final starting concentration of compounds in the p38α enzymatic assays was 1 μM. Columns 6 and 12 (HI controls and LO controls respectively) in the drug plate were reserved as controls and contained only DMSO. Kinase Reaction: The p38α kinase reactions were carried out in a polypropylene 96-well black round bottom assay plate in total volume of 30 μL kinase reaction buffer. Appropriate concentration of purified and activated enzyme (recombinant human) was mixed with indicated concentration of ATP and 100 nM GST-ATF2-Avitag, in the presence or absence (HI control) of Compound. See table below for actual concentrations. In the absence of substrate, the background was measured as LO control. The reaction was allowed to incubate for 1 hour at RT. Assay Reagent Concentrations: The final reagent concentrations were 1 nM p38α and 50 μM ATP. […] After 60 minutes incubation at room temperature, the assay plate was read in a Discovery Plate Reader. The wells were excited with coherent 320 nm light and the ratio of delayed ([…] post excitation) emissions at […] (native europium fluorescence) and 665 nm (europium fluorescence transferred to allophycocyanin—an index of substrate phosphorylation) was determined (Park et al, 1999). Data Analysis: The proportion of substrate phosphorylated in the kinase reaction in the presence of compound compared with that phosphorylated in the presence of DMSO vehicle alone (HI control) was calculated using the formula: % control (POC)=(compound−average LO)/(average HI−average LO)*100. Data (consisting of POC and inhibitor concentration in μM) was fitted to a 4-parameter equation (y=A+((B−A)/(1+((x/C)^D))), where A is the minimum y (POC) value, B is the maximum y (POC), C is the x (compound concentration) at the point of inflection and D is the slope factor, using a Levenburg-Marquardt non-linear regression algorithm.
The inhibition constant (Ki) of the inhibitor was estimated from the IC50 (compound concentration at the point of inflection C) using the Cheng-Prussof equation: Ki=IC50/(1+S/Km), where S is the ATP substrate concentration, and Km is the Michaelis constant for ATP as determined experimentally. All results were expressed as the mean±the standard error of the mean. Data acquisition and non-linear regression algorithms were performed using Activity Base v5.2 and XL-fit software v4.1 respectively. All data was archived using Activity Base v5.2 software.

[2] = system: TNF-α induced IL-8 production in human whole blood; assay: Inhibition of TNF-α induced IL-8 in 50% human whole blood; assay type: cell-based; details: 1 nM TNF-α, secreted IL-8, 16-18 hours, read-out: WB TNF/IL8 IC50
Procedure: Inhibition of TNF-α Induced IL-8 in 50% Human Whole Blood
Test compounds were evaluated in vitro for the ability to inhibit the production of secreted IL-8 by whole blood activated with TNF-α. Fresh human whole blood was obtained from healthy, non-medicated volunteers in sodium heparin tubes.
Compound Dilution—Assay Procedure
Test compounds are serially diluted 1:3 in DMSO and then diluted 1:250 into R10 (RPMI 1640, 10% human serum AB, 1× pen/strep/glutamine) to the 4× working concentration to be used in the assay. 100 ul heparinized whole blood is plated into wells of 96 well flat bottom plates. 50 ul of either 4× compound or DMSO control (Final DMSO concentration is 0.1%) are added to the appropriate wells. Plates are incubated for 1 hour at 37 degrees Celsius. 50 ul of 4×TNF-α (4 nM TNF-α, for a final concentration of 1 nM) or control (media alone) is added to the appropriate wells (Total volume=200 ul). Plates are incubated overnight (16-18 hours). 100 ul of supernatant is collected and stored in 96-well round bottom polypropylene plates at −80 degrees Celsius or assayed immediately for IL-8.
Cytokines are measured on antibody (Ab) sandwich ECL based 96-well detection plates. 20 ul of supernatant are added to plate and plate is sealed and shaken at RT for 1 hour. 130 ul of detection Ab cocktail is added and plates are sealed and shaken for 1 hour in the dark at RT. Plates are read on MSD Sector HTS instrument. Data are analyzed and IC50 values generated using Activity Base and Xl-fit programs.

Chain of human p38α (Q16539 whole entry): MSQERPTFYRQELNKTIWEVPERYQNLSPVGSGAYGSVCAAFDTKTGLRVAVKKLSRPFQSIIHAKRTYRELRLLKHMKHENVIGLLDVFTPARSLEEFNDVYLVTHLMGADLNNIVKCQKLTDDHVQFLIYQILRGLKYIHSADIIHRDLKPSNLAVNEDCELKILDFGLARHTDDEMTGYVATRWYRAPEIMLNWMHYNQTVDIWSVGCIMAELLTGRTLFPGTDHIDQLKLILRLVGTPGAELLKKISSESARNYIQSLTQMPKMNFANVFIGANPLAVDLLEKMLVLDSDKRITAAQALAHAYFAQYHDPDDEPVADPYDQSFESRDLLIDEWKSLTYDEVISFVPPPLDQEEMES

Compound | IC50 [1] [nM] | IC50 [2] [nM]
Cc1cccc(Nc2ccc3c(-c4ccc(F)cc4C)nncc3c2)n1 [Example 15, 1-(4-fluoro-2-methylphenyl)-N-(6-methyl-2-pyridinyl)-6-phthalazinamine] | 1.5 | 11.4
CC(Oc1nncc2cc(Nc3ccc(F)cc3F)ccc12)C(F)(F)F (racemic) [Example 6, N-(2,4-Difluorophenyl)-1-(1,1,1-trifluoropropan-2-yloxy)phthalazin-6-amine] | 3.1 | 37
C[C@@H](Oc1nncc2cc(Nc3ccc(F)cc3F)ccc12)C(F)(F)F [Example 6a, N-(2,4-difluorophenyl)-1-(((1R)-2,2,2-trifluoro-1-methylethyl)oxy)-6-phthalazinamine] | 1.5 | 24
CC(c1nncc2cc(Nc3ccc(F)cc3)ccc12)C(F)(F)F (stereo not shown) [Example 5, N-(4-Fluorophenyl)-1-(2,2,2-trifluoro-1-methylethyl)-6-phthalazinamine] | 1 | 3.9
Cc1ccccc1-c1nncc2cc(Nc3ccc(F)cc3F)ccc12 [Example 8, N-(2,4-difluorophenyl)-1-(2-methylphenyl)-6-phthalazinamine] | 0.2 | 1.7
Cc1cc(F)ccc1-c1nncc2cc(Nc3ccc(F)cc3C(F)(F)F)ccc12 [Example 13, 1-(4-fluoro-2-methylphenyl)-N-(4-fluoro-2-(trifluoromethyl)phenyl)-6-phthalazinamine] | 0.5 | 9.9
CC(C)c1nncc2cc(Nc3ccc(F)cc3F)ccc12 [Example 7, N-(2,4-Difluorophenyl)-1-isopropylphthalazin-6-amine] | 0.4 | 2.4
C[C@H](Oc1nncc2cc(Nc3ccc(F)cc3F)ccc12)C(F)(F)F [Example 6b, N-(2,4-difluorophenyl)-1-(((1S)-2,2,2-trifluoro-1-methylethyl)oxy)-6-phthalazinamine] | 4.6 | 89
Cc1ccc(F)cc1Nc1ccc2c(-c3ccc(F)cc3C)nncc2c1 [Example 3, 1-(4-Fluoro-2-methylphenyl)-N-(5-fluoro-2-methylphenyl)phthalazin-6-amine] | 0.5 | 3.5
CC1CCCN1c1nncc2cc(Nc3ccccc3)ccc12 (stereo not shown) [Example 17, 1-(2-methyl-1-pyrrolidinyl)-N-phenyl-6-phthalazinamine] | 5 | 6.7
Cc1cc(F)ccc1-c1nncc2cc(Nc3ccccn3)ccc12 [Example 16, 1-(4-fluoro-2-methylphenyl)-N-2-pyridinyl-6-phthalazinamine] | 1.6 | 16.1
Cc1ccccc1-c1nncc2cc(Nc3ccccc3)ccc12 [Example 9, 1-(2-methylphenyl)-N-phenyl-6-phthalazinamine] | 0.2 | 1.5
Cc1cc(S(C)(=O)=O)ccc1-c1nncc2cc(Nc3ccc(F)cc3F)ccc12 [Example 10, N-(2,4-difluorophenyl)-1-(2-methyl-4-(methylsulfonyl)phenyl)-6-phthalazinamine] | 0.3 | 0.5
Cc1cc(F)ccc1-c1nncc2cc(Nc3cccc(F)c3C)ccc12 [Example 18, N-(3-fluoro-2-methylphenyl)-1-(4-fluoro-2-methylphenyl)-6-phthalazinamine] | 0.3 | 1.8
CC1CCCN1c1nncc2cc(Nc3ccc(F)cc3F)ccc12 (stereo not shown) [Example 1, N-(2,4-Difluorophenyl)-1-(2-methylpyrrolidin-1-yl)phthalazin-6-amine] | 1.5 | 4.1
Cc1cc(F)ccc1-c1nncc2cc(Sc3cccc(F)c3)ccc12 [Example 4, 1-(4-Fluoro-2-methylphenyl)-6-(3-fluorophenylthio)phthalazine] | 1 | 66.9
Cc1cc(F)ccc1-c1nncc2cc(Nc3ncccc3C)ccc12 [Example 14, 1-(4-fluoro-2-methylphenyl)-N-(3-methyl-2-pyridinyl)-6-phthalazinamine] | 0.7 | 6.6

More lines, now with the values ahead:

IC50 [1] [nM] | IC50 [2] [nM] | Compound
0.3 | 1.8 | Cc1cc(F)ccc1Nc1ccc2c(-c3ccc(F)cc3C)nncc2c1 [Example 20, N,1-bis(4-fluoro-2-methylphenyl)-6-phthalazinamine]
0.7 | 4.2 | Cc1cc(S(C)(=O)=O)c(Cl)cc1-c1nncc2cc(Nc3ccc(F)cc3F)ccc12 [Example 26, 1-(5-chloro-2-methyl-4-(methylsulfonyl)phenyl)-N-(2,4-difluorophenyl)-6-phthalazinamine]
0.5 | 3.2 | Cc1cc(F)ccc1-c1nncc2cc(Nc3cccc(F)c3)ccc12 [Example 21, 1-(4-fluoro-2-methylphenyl)-N-(3-fluorophenyl)-6-phthalazinamine]
0.7 | 1.8 | Cc1ncccc1-c1nncc2cc(Nc3ccc(F)cc3)ccc12 [Example 29, N-(4-fluorophenyl)-1-(2-methyl-3-pyridinyl)-6-phthalazinamine]
0.8 | 20 | Cc1cc(S(C)(=O)=O)ccc1-c1nncc2cc(Nc3ccc(F)cn3)ccc12 [Example 33, N-(5-fluoro-2-pyridinyl)-1-(2-methyl-4-(methylsulfonyl)phenyl)-6-phthalazinamine]
0.7 | 4.5 | Cc1cc(S(C)(=O)=O)c(Cl)cc1-c1nncc2cc(Nc3ccc(F)cc3)ccc12 [Example 25, 1-(5-chloro-2-methyl-4-(methylsulfonyl)phenyl)-N-(4-fluorophenyl)-6-phthalazinamine]
0.9 | 4.9 | Cc1noc(C)c1-c1nncc2cc(Nc3ccc(F)cc3)ccc12 [Example 30, 1-(3,5-dimethyl-4-isoxazolyl)-N-(4-fluorophenyl)-6-phthalazinamine]
0.7 | 1.7 | Fc1ccc(Nc2ccc3c(-c4ccccc4Cl)nncc3c2)cc1 [Example 31, 1-(2-chlorophenyl)-N-(4-fluorophenyl)-6-phthalazinamine]
0.3 | 2.2 | Cc1cccc(Nc2ccc3c(-c4ccc(F)cc4C)nncc3c2)c1 [Example 19, 1-(4-fluoro-2-methylphenyl)-N-(3-methylphenyl)-6-phthalazinamine]
0.9 | 1.6 | COc1ncccc1-c1nncc2cc(Nc3ccc(F)cc3)ccc12 [Example 28, N-(4-fluorophenyl)-1-(2-(methyloxy)-3-pyridinyl)-6-phthalazinamine]
1 | 4.9 | Cn1nccc1-c1nncc2cc(Nc3ccc(F)cc3)ccc12 [Example 32, N-(4-fluorophenyl)-1-(1-methyl-1H-pyrazol-5-yl)-6-phthalazinamine]
0.7 | 4.7 | Cc1cc(S(C)(=O)=O)c(F)cc1-c1nncc2cc(Nc3ccc(F)cc3)ccc12 [Example 24, 1-(5-fluoro-2-methyl-4-(methylsulfonyl)phenyl)-N-(4-fluorophenyl)-6-phthalazinamine]
